The text below walks through data of PubChem BioAssay (NCI).

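Step 1: Grow cells in 96-well plates. Step 2: Expose to compound for 48 hours at 5 concentrations. Step 3: Interpolate endpoints linearly; if unreached, use highest concentration. At the TGI there is no net growth.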

One test deals with OVCAR-8 ovarian. Description: inhibition of tumour cell growth, NCI panel, 48 h.
Regarding `CCCCCCOc1ccc(Nc2c(O)c3c(c(O)c2Cl)C(=O)C=CC3=O)cc1`, the TGI was > 5.31 µM.

For a further test, the system named is SF-295 CNS. Description: inhibition of tumour cell growth, NCI panel, 48 h.
On to `O=C(c1cccs1)N(C(=O)N1CCN(c2ccccc2)CC1)S(=O)(=O)c1ccccc1`, for which the TGI was > 100 µM.

Take `[N-]=[N+]=Nc1cc(=O)n2c3c(cccc13)CCC2`: the TGI was > 100 µM.

In the case of `C=C(C(=O)O)[C@@H]1C[C@@H](OC(C)=O)[C@]2(C)CC/C=C(\C)CCC[C@H](C)[C@H](O)[C@@H]1O2`, the TGI is > 100 µM.

On to `CCCCCCOc1ccc(Nc2c(O)c3c(c(O)c2Cl)C(=O)C=CC3=O)cc1`, for which the TGI is > 10 µM.

Another test deals with T-47D breast. Briefly: inhibition of tumour cell growth, NCI panel, 48 h.
In turn, `O=C(c1cccs1)N(C(=O)N1CCN(c2ccccc2)CC1)S(=O)(=O)c1ccccc1` had a TGI of 40.4 µM.

For the compound `[N-]=[N+]=Nc1cc(=O)n2c3c(cccc13)CCC2`, the TGI was > 100 µM.

For `C=C(C(=O)O)[C@@H]1C[C@@H](OC(C)=O)[C@]2(C)CC/C=C(\C)CCC[C@H](C)[C@H](O)[C@@H]1O2`, the TGI is > 100 µM.

For the compound `CCCCCCOc1ccc(Nc2c(O)c3c(c(O)c2Cl)C(=O)C=CC3=O)cc1`, the TGI is > 10 µM.

For another test, the system named is HT29 colon. Briefly: inhibition of tumour cell growth, NCI panel, 48 h.
As to `O=C(c1cccs1)N(C(=O)N1CCN(c2ccccc2)CC1)S(=O)(=O)c1ccccc1`, the TGI is > 100 µM.

In the case of `[N-]=[N+]=Nc1cc(=O)n2c3c(cccc13)CCC2`, the TGI was > 100 µM.

For `C=C(C(=O)O)[C@@H]1C[C@@H](OC(C)=O)[C@]2(C)CC/C=C(\C)CCC[C@H](C)[C@H](O)[C@@H]1O2`, the TGI is > 100 µM.

Turning to `CCCCCCOc1ccc(Nc2c(O)c3c(c(O)c2Cl)C(=O)C=CC3=O)cc1`, the TGI was > 7.46 µM.

The next test has as its system MDA-N. Description: inhibition of tumour cell growth, NCI panel, 48 h.
`O=C(c1cccs1)N(C(=O)N1CCN(c2ccccc2)CC1)S(=O)(=O)c1ccccc1` came in with a TGI of 41.8 µM.

Take `[N-]=[N+]=Nc1cc(=O)n2c3c(cccc13)CCC2`: the TGI was > 100 µM.

Consider `C=C(C(=O)O)[C@@H]1C[C@@H](OC(C)=O)[C@]2(C)CC/C=C(\C)CCC[C@H](C)[C@H](O)[C@@H]1O2`, for which the TGI was found to be 64.2 µM.

For `CCCCCCOc1ccc(Nc2c(O)c3c(c(O)c2Cl)C(=O)C=CC3=O)cc1`, the TGI is > 6.89 µM.

The test system of a further test is OVCAR-4 ovarian. Briefly: inhibition of tumour cell growth, NCI panel, 48 h.
Regarding `O=C(c1cccs1)N(C(=O)N1CCN(c2ccccc2)CC1)S(=O)(=O)c1ccccc1`, the TGI is > 100 µM.

Turning to `[N-]=[N+]=Nc1cc(=O)n2c3c(cccc13)CCC2`, the TGI was > 100 µM.

For the compound `C=C(C(=O)O)[C@@H]1C[C@@H](OC(C)=O)[C@]2(C)CC/C=C(\C)CCC[C@H](C)[C@H](O)[C@@H]1O2`, the TGI was > 100 µM.

Turning to `CCCCCCOc1ccc(Nc2c(O)c3c(c(O)c2Cl)C(=O)C=CC3=O)cc1`, the TGI was > 8.13 µM.

The next test relates to PC-3 prostate. Briefly: inhibition of tumour cell growth, NCI panel, 48 h.
Consider `O=C(c1cccs1)N(C(=O)N1CCN(c2ccccc2)CC1)S(=O)(=O)c1ccccc1`, for which the TGI amounted to 94.6 µM.

As to `[N-]=[N+]=Nc1cc(=O)n2c3c(cccc13)CCC2`, the TGI was > 100 µM.

For the compound `C=C(C(=O)O)[C@@H]1C[C@@H](OC(C)=O)[C@]2(C)CC/C=C(\C)CCC[C@H](C)[C@H](O)[C@@H]1O2`, the TGI is > 100 µM.

In the case of `CCCCCCOc1ccc(Nc2c(O)c3c(c(O)c2Cl)C(=O)C=CC3=O)cc1`, the TGI is > 10 µM.

A further test relates to CAKI-1 renal. Briefly: inhibition of tumour cell growth, NCI panel, 48 h.
The compound `O=C(c1cccs1)N(C(=O)N1CCN(c2ccccc2)CC1)S(=O)(=O)c1ccccc1` displayed a TGI of 59.9 µM.

As for `C=C(C(=O)O)[C@@H]1C[C@@H](OC(C)=O)[C@]2(C)CC/C=C(\C)CCC[C@H](C)[C@H](O)[C@@H]1O2`, the TGI was > 100 µM.

As to `CCCCCCOc1ccc(Nc2c(O)c3c(c(O)c2Cl)C(=O)C=CC3=O)cc1`, the TGI was > 10 µM.

The next test concerns SN12C renal. Briefly: inhibition of tumour cell growth, NCI panel, 48 h.
`O=C(c1cccs1)N(C(=O)N1CCN(c2ccccc2)CC1)S(=O)(=O)c1ccccc1` showed a TGI of 35.1 µM.

For the compound `[N-]=[N+]=Nc1cc(=O)n2c3c(cccc13)CCC2`, the TGI is > 100 µM.

In the case of `C=C(C(=O)O)[C@@H]1C[C@@H](OC(C)=O)[C@]2(C)CC/C=C(\C)CCC[C@H](C)[C@H](O)[C@@H]1O2`, the TGI is > 100 µM.

The compound `CCCCCCOc1ccc(Nc2c(O)c3c(c(O)c2Cl)C(=O)C=CC3=O)cc1` yielded a TGI of 4.54 µM.

Another test deals with SF-268 CNS. Description: inhibition of tumour cell growth, NCI panel, 48 h.
`O=C(c1cccs1)N(C(=O)N1CCN(c2ccccc2)CC1)S(=O)(=O)c1ccccc1` had a TGI of 80.6 µM.

`[N-]=[N+]=Nc1cc(=O)n2c3c(cccc13)CCC2`: the TGI was > 100 µM.

For `C=C(C(=O)O)[C@@H]1C[C@@H](OC(C)=O)[C@]2(C)CC/C=C(\C)CCC[C@H](C)[C@H](O)[C@@H]1O2`, the TGI is > 100 µM.

On to `CCCCCCOc1ccc(Nc2c(O)c3c(c(O)c2Cl)C(=O)C=CC3=O)cc1`, for which the TGI is > 10 µM.

A further test deals with K-562 leukemia. Description: inhibition of tumour cell growth, NCI panel, 48 h.
`O=C(c1cccs1)N(C(=O)N1CCN(c2ccccc2)CC1)S(=O)(=O)c1ccccc1` registered a TGI of 80.5 µM.

In the case of `[N-]=[N+]=Nc1cc(=O)n2c3c(cccc13)CCC2`, the TGI was > 100 µM.

Take `C=C(C(=O)O)[C@@H]1C[C@@H](OC(C)=O)[C@]2(C)CC/C=C(\C)CCC[C@H](C)[C@H](O)[C@@H]1O2`: the TGI is > 100 µM.

`CCCCCCOc1ccc(Nc2c(O)c3c(c(O)c2Cl)C(=O)C=CC3=O)cc1` had a TGI of 8.92 µM.

In a further test the test system is SW-620 colon. Description: inhibition of tumour cell growth, NCI panel, 48 h.
As for `O=C(c1cccs1)N(C(=O)N1CCN(c2ccccc2)CC1)S(=O)(=O)c1ccccc1`, the TGI is > 100 µM.

Regarding `[N-]=[N+]=Nc1cc(=O)n2c3c(cccc13)CCC2`, the TGI was > 100 µM.

On to `C=C(C(=O)O)[C@@H]1C[C@@H](OC(C)=O)[C@]2(C)CC/C=C(\C)CCC[C@H](C)[C@H](O)[C@@H]1O2`, for which the TGI was > 100 µM.

As for `CCCCCCOc1ccc(Nc2c(O)c3c(c(O)c2Cl)C(=O)C=CC3=O)cc1`, the TGI came to 4.73 µM.

For the next test, the system named is SR leukemia. Briefly: inhibition of tumour cell growth, NCI panel, 48 h.
`O=C(c1cccs1)N(C(=O)N1CCN(c2ccccc2)CC1)S(=O)(=O)c1ccccc1` registered a TGI of 49.3 µM.

For the compound `[N-]=[N+]=Nc1cc(=O)n2c3c(cccc13)CCC2`, the TGI was > 100 µM.

`C=C(C(=O)O)[C@@H]1C[C@@H](OC(C)=O)[C@]2(C)CC/C=C(\C)CCC[C@H](C)[C@H](O)[C@@H]1O2` returned a TGI of 65.1 µM.

The compound `CCCCCCOc1ccc(Nc2c(O)c3c(c(O)c2Cl)C(=O)C=CC3=O)cc1` displayed a TGI of 5.33 µM.

The next test has as its system HCT-15 colon. Description: inhibition of tumour cell growth, NCI panel, 48 h.
Compound `O=C(c1cccs1)N(C(=O)N1CCN(c2ccccc2)CC1)S(=O)(=O)c1ccccc1` displayed a TGI of 75.4 µM.

With `[N-]=[N+]=Nc1cc(=O)n2c3c(cccc13)CCC2`, the TGI is > 100 µM.

Regarding `C=C(C(=O)O)[C@@H]1C[C@@H](OC(C)=O)[C@]2(C)CC/C=C(\C)CCC[C@H](C)[C@H](O)[C@@H]1O2`, the TGI is > 100 µM.

For `CCCCCCOc1ccc(Nc2c(O)c3c(c(O)c2Cl)C(=O)C=CC3=O)cc1`, the TGI was determined as 3.68 µM.

Another test deals with M14 melanoma. Description: inhibition of tumour cell growth, NCI panel, 48 h.
`O=C(c1cccs1)N(C(=O)N1CCN(c2ccccc2)CC1)S(=O)(=O)c1ccccc1` showed a TGI of 36 µM.

In the case of `[N-]=[N+]=Nc1cc(=O)n2c3c(cccc13)CCC2`, the TGI is > 100 µM.

For the compound `C=C(C(=O)O)[C@@H]1C[C@@H](OC(C)=O)[C@]2(C)CC/C=C(\C)CCC[C@H](C)[C@H](O)[C@@H]1O2`, the TGI was > 100 µM.
